This is an account of results in patent US20240350418A1, “LIPID-BASED COMPOSITION FOR ORAL ADMINISTRATION OF BRADYKININ B2-RECEPTOR ANTAGONISTS” (PHARVARIS GMBH, priority 2021, published 2024).

Molecules are shown by their SMILES.

Data set [1] concerns the target T1, dog B2 receptor (Canis lupus familiaris, UniProt Q9BDQ4).
T1 sequence (Q9BDQ4 1-392): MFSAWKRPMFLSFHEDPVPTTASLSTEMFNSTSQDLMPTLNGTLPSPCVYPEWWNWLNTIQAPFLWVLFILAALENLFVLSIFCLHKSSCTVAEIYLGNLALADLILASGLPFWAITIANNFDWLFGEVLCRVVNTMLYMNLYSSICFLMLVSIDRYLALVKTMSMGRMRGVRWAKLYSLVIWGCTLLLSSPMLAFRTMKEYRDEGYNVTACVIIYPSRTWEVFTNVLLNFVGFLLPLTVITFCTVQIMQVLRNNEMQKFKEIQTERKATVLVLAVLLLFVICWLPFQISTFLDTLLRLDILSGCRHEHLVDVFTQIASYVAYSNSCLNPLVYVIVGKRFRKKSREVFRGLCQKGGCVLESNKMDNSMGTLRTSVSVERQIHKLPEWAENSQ
The data set is described as follows: In vitro pharmacology testing, antagonist potency. It is filed as biochemical.

The target of data set [2] is T2, human B2 receptor (Homo sapiens, UniProt P30411).
T2 sequence (P30411 1-391): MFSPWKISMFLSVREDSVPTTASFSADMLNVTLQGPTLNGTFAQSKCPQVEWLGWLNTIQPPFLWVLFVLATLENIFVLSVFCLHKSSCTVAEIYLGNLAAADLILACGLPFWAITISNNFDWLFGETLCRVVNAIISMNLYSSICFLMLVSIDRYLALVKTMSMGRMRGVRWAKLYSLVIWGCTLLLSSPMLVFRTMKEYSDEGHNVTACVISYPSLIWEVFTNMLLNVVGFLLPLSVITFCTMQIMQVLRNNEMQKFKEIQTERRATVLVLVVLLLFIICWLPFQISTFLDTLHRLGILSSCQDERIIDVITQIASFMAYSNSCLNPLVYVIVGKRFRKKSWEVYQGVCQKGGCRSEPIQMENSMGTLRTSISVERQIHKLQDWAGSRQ
Kind of data set: In vitro pharmacology testing, antagonist potency. It is filed as biochemical.

For data set [3], the target named is T3, rat B2 receptor (Rattus norvegicus, UniProt P25023).
T3 sequence (P25023 1-396): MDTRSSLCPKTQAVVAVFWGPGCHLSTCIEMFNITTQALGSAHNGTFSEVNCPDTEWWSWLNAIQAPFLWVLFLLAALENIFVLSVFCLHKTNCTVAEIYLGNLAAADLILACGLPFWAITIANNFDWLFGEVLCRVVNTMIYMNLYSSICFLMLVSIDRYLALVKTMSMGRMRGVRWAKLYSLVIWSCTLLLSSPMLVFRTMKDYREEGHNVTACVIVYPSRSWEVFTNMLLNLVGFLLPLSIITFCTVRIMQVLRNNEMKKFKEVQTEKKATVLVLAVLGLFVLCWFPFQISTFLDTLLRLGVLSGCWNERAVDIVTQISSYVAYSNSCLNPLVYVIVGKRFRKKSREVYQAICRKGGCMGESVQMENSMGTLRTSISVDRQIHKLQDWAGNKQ
The data set is described as follows: In vitro pharmacology testing, antagonist potency. It is filed as biochemical.

A short description of data set [4]: Single dose pharmacokinetic study in monkeys. It counts as in vivo, Cynomolgus monkeys. Particulars: after administration, except one animal treated with the Test Formulation. The procedure:
The pharmacokinetic properties of a liquid composition according to the invention after a single oral administration in Cynomolgus monkeys was studied and compared with those of a suspension of the same API in an aqueous carrier comprising methylcellulose (1 wt. %). The Test Formulation was based on composition E of Example 1, except that the concentration of the API was 5 mg/mL in essentially the same liquid vehicle as composition E. The Comparative Formulation comprised the same API at a concentration of 2 mg/mL, formulated as an aqueous drug suspension further comprising methylcellulose (1 wt %). […]
The pharmacokinetic parameters were determined from the individual plasma concentrations by non-compartmental analysis, using Kinetica™ 4.4.1 (Thermo Fisher). […]
Maximum plasma concentration (Cmax), sampling time of Cmax (Tmax), and sampling time of the last plasma concentration >LLOQ (Tlast) parameters were determined from the observations. The area under the plasma concentration-time curve from the time of dosing to the last quantifiable concentration was calculated using the linear up/logarithmic down trapezoidal rule (AUClast). At least 3 consecutive quantifiable concentrations had to be available for AUC calculation. […]
The percentage of extrapolated AUC from Tlast to infinity was calculated by Kinetica™ 4.4.1, using the following equation: […]

Data set [5] relates to monkey B2 receptor. Kind of data set: In vitro pharmacology testing, antagonist potency. It is filed as biochemical.
The target in data set [6] is T4, bradykinin B2 receptor (Homo sapiens, UniProt P30411).
T4 sequence (P30411 1-391): T2 sequence (P30411 1-391)
Kind of data set: Estimated therapeutic efficacious threshold plasma concentration. It counts as in vivo.

In data set [7] the target is T5, mouse B2 receptor (Mus musculus, UniProt P32299).
T5 sequence (P32299 1-392): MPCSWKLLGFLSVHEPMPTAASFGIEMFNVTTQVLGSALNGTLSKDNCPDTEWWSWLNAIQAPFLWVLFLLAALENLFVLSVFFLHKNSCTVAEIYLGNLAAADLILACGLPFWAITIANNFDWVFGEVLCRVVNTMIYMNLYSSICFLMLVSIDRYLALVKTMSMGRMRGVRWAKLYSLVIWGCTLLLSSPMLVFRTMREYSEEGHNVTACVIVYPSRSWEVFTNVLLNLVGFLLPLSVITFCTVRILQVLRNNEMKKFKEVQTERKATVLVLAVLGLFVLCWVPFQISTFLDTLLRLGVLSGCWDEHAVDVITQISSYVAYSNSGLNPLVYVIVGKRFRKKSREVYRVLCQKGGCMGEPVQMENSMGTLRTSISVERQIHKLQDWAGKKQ
Kind of data set: In vitro pharmacology testing, antagonist potency. It counts as biochemical.

In the case of `[2H][C@@](C)(NC(=O)COC(F)F)c1cc(F)cc(Cl)c1COc1cccc2c(-c3ncnn3C)cc(C)nc12` [API, (S)-N-(1-deutero-1-(3-chloro-5-fluoro-2-((2-methyl-4-(1-methyl-1H-1,2,4-triazol-5-yl)quinolin-8-yloxy)methyl)phenyl)ethyl)-2-(difluoromethoxy)acetamide monohydrate], the antagonist potency result in data set [1] is “low antagonist potency”; in data set [2] it was “high antagonist potency”; in data set [3] it was “low antagonist potency”; in data set [5], “high antagonist potency”; in data set [7], “low antagonist potency”. In data set [4], the “time up to which API plasma concentrations were quantifiable” value is listed as “up to 24 hours”. Also, the “estimated EC50 (therapeutic efficacious threshold plasma concentration)” value in data set [6] is recorded as 2.4 ng/mL. In data set [6], the “estimated EC85 (therapeutic efficacious threshold plasma concentration)” value is recorded as 13.8 ng/mL.
